pKi: −log10 of the molar value.
What was measured:
D(1B) dopamine receptor = D(1B) dopamine receptor (Homo sapiens, UniProt P21918); assay: (§1) PDSP Secondary Binding target: DRD5 - Compounds are tested at 10 uM concentration, plate are incubated at room temperature in the dark for 90 minutes. Reaction are stopped by vacuum filtration onto 0.3% polyethyleneimine soaked filter mats using Filtermate harvester. Scintillation cocktail is then melted onto microwave-dried filters on a hot plate and the radio activity is counted in Microbia counter.
Chain of D(1B) dopamine receptor (P21918 whole entry): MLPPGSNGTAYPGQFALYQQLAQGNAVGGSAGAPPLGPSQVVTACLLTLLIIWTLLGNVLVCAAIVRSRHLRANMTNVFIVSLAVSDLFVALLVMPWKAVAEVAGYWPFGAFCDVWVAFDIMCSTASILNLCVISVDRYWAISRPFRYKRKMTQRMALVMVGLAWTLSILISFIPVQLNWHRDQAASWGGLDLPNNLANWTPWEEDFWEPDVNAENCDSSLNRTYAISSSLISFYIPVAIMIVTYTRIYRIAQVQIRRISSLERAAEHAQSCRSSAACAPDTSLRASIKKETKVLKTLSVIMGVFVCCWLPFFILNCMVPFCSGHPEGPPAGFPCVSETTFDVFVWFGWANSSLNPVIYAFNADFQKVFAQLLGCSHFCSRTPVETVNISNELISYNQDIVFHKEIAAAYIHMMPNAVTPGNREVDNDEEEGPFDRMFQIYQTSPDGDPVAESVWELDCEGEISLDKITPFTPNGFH

[1] = target: 5-hydroxytryptamine receptor 1D (Homo sapiens, UniProt P28221); assay: as §1, with “HTR1D” for “DRD5”
Chain of 5-hydroxytryptamine receptor 1D (P28221 whole entry): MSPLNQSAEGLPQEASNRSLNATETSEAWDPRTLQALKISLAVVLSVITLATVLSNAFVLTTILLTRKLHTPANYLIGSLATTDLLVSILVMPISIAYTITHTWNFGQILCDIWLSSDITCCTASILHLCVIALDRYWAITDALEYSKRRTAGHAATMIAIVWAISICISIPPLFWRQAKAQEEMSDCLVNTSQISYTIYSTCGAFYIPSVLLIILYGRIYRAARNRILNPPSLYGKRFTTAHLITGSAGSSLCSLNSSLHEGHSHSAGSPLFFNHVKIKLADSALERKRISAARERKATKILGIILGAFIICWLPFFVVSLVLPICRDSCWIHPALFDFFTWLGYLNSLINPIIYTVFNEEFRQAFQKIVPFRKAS

[2] = target: 5-hydroxytryptamine receptor 7 (Homo sapiens, UniProt P34969); assay: as §1, with “HTR7” for “DRD5”
Chain of 5-hydroxytryptamine receptor 7 (P34969 whole entry): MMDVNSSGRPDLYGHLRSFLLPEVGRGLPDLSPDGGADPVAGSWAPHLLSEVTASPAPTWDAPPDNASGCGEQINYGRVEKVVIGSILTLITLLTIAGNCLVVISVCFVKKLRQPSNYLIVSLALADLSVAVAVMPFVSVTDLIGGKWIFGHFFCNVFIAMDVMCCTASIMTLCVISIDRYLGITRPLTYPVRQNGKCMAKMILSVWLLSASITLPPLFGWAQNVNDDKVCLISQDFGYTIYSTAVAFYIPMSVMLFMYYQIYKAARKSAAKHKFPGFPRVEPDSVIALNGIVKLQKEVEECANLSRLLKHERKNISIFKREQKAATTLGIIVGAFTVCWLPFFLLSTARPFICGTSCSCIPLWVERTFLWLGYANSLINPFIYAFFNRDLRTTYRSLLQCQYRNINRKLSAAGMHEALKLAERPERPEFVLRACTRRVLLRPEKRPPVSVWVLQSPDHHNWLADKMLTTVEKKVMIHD

[3] = target: Sodium-dependent noradrenaline transporter (Homo sapiens, UniProt P23975); assay: as §1, with “SLC6A2” for “DRD5”
Chain of Sodium-dependent noradrenaline transporter (P23975 whole entry): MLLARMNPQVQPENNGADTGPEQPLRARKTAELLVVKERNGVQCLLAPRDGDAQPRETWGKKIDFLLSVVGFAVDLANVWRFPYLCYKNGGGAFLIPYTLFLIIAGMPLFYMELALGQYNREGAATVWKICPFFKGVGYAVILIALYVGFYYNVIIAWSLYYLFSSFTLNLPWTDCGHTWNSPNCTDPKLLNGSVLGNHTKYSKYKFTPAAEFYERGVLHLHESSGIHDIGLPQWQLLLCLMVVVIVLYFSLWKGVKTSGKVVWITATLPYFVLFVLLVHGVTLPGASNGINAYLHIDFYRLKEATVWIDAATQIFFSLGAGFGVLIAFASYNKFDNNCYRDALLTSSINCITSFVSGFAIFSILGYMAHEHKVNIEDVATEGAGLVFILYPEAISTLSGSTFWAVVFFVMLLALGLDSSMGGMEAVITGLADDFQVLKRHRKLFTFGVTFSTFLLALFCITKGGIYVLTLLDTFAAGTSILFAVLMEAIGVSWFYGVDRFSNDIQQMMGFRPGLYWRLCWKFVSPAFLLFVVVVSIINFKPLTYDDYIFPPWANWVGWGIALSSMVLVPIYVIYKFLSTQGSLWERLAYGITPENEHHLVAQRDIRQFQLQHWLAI

[4] = target: Sigma non-opioid intracellular receptor 1 (Homo sapiens, UniProt Q99720); assay: as §1, with “SIGMAR1” for “DRD5”
Chain of Sigma non-opioid intracellular receptor 1 (Q99720 whole entry): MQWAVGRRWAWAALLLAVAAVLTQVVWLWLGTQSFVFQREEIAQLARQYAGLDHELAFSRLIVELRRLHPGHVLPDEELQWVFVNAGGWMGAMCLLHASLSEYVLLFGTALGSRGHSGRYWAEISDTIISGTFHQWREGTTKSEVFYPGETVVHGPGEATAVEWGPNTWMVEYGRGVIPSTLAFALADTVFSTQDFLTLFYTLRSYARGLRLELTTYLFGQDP

[5] = target: T1, Alpha-1B adrenergic receptor (Homo sapiens, UniProt P35368); assay: as §1, with “ADRA1B” for “DRD5”
T1 sequence (P35368 whole entry): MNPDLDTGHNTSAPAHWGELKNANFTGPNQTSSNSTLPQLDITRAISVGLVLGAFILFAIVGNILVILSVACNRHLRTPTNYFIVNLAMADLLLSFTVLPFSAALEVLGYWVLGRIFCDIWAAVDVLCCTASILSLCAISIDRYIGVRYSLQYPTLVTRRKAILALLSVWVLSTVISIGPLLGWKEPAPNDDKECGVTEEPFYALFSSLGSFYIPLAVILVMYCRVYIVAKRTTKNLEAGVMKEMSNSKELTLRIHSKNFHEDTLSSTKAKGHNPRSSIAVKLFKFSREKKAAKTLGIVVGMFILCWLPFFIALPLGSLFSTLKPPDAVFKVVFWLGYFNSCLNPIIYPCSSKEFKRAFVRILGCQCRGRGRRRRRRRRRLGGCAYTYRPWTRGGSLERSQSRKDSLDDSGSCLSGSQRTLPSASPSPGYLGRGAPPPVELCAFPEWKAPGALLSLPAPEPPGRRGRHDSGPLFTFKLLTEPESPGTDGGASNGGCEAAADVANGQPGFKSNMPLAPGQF

D(3) dopamine receptor = D(3) dopamine receptor (Homo sapiens, UniProt P35462); assay: as §1, with “DRD3” for “DRD5”
Chain of D(3) dopamine receptor (P35462 whole entry): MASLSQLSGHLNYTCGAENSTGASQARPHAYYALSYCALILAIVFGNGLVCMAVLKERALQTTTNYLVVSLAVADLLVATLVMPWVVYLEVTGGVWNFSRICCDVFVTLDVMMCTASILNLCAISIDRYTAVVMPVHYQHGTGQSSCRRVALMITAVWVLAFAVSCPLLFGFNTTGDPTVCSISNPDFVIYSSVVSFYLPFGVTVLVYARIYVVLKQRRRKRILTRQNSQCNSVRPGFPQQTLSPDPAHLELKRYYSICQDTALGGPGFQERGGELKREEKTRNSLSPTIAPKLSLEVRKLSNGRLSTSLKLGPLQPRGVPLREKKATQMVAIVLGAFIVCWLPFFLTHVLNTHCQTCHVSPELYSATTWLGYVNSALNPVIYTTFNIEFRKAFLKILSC

[6] = target: T2, Alpha-1D adrenergic receptor (Homo sapiens, UniProt P25100); assay: as §1, with “ADRA1D” for “DRD5”
T2 sequence (P25100 whole entry): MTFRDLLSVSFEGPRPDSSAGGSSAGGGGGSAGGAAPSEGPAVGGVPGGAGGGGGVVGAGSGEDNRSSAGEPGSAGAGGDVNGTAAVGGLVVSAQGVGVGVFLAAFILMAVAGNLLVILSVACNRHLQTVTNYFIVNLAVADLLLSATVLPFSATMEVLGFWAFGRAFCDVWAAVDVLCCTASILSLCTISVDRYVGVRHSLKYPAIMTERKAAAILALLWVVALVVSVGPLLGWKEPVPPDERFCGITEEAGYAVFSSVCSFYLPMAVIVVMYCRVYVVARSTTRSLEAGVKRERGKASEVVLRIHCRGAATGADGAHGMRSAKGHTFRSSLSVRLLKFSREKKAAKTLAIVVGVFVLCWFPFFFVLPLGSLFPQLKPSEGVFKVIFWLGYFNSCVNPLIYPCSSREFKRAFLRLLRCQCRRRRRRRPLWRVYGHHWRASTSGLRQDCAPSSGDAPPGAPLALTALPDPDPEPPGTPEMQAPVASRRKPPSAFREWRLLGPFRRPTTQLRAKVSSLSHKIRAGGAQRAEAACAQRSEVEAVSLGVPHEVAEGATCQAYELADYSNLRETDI

[7] = target: 5-hydroxytryptamine receptor 2A (Homo sapiens, UniProt P28223); assay: as §1, with “HTR2A” for “DRD5”
Chain of 5-hydroxytryptamine receptor 2A (P28223 whole entry): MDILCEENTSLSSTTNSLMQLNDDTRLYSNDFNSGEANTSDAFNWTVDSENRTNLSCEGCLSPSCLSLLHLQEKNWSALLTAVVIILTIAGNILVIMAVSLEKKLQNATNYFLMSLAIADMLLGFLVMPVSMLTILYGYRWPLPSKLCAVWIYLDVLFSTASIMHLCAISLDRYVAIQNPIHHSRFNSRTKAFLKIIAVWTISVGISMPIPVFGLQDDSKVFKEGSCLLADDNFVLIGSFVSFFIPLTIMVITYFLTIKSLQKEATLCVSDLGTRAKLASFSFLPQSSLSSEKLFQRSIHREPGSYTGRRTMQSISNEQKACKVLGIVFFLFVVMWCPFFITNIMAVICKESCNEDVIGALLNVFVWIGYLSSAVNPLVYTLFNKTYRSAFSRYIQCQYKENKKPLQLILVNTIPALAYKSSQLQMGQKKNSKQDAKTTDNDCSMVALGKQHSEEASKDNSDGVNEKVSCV

[8] = target: 5-hydroxytryptamine receptor 6 (Homo sapiens, UniProt P50406); assay: as §1, with “HTR6” for “DRD5”
Chain of 5-hydroxytryptamine receptor 6 (P50406 whole entry): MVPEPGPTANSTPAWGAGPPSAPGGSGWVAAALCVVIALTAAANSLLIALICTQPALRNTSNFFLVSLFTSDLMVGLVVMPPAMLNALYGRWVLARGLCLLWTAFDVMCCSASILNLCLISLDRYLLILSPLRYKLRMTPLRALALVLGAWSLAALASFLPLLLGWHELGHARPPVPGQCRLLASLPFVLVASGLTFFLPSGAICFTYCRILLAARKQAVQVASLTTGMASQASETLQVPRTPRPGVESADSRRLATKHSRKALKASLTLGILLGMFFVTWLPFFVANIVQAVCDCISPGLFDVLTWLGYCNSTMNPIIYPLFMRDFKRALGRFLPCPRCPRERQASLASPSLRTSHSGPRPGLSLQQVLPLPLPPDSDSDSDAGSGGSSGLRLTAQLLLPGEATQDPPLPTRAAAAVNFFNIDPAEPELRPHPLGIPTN

[9] = target: T3, Muscarinic acetylcholine receptor M1 (Homo sapiens, UniProt P11229); assay: as §1, with “CHRM1” for “DRD5”
T3 sequence (P11229 whole entry): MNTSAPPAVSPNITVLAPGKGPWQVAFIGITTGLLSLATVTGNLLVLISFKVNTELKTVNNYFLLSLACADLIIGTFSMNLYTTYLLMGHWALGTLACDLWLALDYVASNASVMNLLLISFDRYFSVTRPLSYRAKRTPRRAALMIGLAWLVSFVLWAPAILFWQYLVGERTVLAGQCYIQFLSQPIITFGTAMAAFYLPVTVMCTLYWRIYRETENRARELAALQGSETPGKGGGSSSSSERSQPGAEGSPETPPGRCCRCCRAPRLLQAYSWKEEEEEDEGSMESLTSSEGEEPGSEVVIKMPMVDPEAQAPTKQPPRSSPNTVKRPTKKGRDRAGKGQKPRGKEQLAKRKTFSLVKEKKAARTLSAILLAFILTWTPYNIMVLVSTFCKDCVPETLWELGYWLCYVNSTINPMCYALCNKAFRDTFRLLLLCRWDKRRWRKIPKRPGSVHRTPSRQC

[10] = target: Muscarinic acetylcholine receptor M3 (Homo sapiens, UniProt P20309); assay: as §1, with “CHRM3” for “DRD5”
Chain of Muscarinic acetylcholine receptor M3 (P20309 whole entry): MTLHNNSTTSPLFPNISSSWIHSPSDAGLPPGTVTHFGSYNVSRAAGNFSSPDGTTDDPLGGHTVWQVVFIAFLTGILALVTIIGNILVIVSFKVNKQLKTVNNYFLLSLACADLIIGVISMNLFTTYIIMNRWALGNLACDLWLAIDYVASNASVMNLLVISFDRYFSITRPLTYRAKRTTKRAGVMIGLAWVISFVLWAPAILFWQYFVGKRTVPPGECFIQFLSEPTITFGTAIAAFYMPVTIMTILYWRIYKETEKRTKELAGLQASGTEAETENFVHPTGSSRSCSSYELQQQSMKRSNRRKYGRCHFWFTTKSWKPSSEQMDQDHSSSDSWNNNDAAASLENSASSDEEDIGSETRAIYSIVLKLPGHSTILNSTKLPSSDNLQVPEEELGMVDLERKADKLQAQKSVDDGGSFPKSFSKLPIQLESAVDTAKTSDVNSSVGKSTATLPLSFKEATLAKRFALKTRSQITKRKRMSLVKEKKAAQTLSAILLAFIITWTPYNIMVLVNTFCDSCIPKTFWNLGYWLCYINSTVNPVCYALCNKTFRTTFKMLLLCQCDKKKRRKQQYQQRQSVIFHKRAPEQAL

D(2) dopamine receptor = D(2) dopamine receptor (Homo sapiens, UniProt P14416); assay: as §1, with “DRD2” for “DRD5”
Chain of D(2) dopamine receptor (P14416 whole entry): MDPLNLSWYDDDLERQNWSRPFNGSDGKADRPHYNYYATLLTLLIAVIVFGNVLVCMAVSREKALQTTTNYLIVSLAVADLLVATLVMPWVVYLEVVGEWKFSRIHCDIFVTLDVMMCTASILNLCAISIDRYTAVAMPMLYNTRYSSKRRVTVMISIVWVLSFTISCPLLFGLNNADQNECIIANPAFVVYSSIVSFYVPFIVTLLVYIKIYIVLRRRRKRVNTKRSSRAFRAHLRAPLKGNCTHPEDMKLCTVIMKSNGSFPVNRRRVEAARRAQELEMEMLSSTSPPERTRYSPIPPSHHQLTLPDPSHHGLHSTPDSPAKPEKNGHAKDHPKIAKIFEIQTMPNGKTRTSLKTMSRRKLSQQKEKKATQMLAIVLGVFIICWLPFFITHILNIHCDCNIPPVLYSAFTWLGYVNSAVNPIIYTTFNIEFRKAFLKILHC

[11] = target: T4, 5-hydroxytryptamine receptor 3A (Homo sapiens, UniProt P46098); assay: as §1, with “HTR3A” for “DRD5”
T4 sequence (P46098 whole entry): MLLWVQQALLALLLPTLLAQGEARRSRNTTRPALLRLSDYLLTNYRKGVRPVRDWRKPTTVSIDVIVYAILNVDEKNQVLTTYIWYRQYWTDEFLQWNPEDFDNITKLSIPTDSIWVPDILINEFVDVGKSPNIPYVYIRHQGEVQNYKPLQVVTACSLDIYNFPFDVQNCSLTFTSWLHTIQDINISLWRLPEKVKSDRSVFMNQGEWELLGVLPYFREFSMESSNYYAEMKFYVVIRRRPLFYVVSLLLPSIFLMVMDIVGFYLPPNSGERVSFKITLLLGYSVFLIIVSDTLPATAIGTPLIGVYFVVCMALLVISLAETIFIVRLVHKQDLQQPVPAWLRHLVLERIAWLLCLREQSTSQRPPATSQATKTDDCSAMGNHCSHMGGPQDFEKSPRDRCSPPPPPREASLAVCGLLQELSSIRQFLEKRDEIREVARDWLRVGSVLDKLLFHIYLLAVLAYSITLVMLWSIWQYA

Histamine H2 receptor = Histamine H2 receptor (Homo sapiens, UniProt P25021); assay: as §1, with “HRH2” for “DRD5”
Chain of Histamine H2 receptor (P25021 whole entry): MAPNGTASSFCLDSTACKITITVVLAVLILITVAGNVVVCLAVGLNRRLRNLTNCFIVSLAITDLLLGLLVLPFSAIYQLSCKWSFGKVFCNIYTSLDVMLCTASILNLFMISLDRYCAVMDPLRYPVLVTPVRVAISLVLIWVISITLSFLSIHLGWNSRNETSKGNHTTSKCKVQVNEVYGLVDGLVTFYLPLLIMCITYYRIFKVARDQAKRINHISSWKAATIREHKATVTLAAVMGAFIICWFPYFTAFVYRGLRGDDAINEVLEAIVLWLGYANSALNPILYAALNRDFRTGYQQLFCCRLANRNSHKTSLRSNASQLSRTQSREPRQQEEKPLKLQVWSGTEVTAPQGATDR

Structure (SMILES): CN1C2CCC1CC(OC(c1ccc(F)cc1)c1ccc(F)cc1)C2 (stereo not given)
- pKi (D(1B) dopamine receptor): 6.41
- pKi [1]: 5.95
- pKi [2]: 6.90
- pKi [3]: 6.11
- pKi [4]: 7.01
- pKi [5]: 6.58
- pKi (D(3) dopamine receptor): 6.94
- pKi [6]: 7.24
- pKi [7]: 7.76
- pKi [8]: 6.43
- pKi [9]: 8.01
- pKi [10]: 8.24
- pKi (D(2) dopamine receptor): 6.12
- pKi [11]: 5.68
- pKi (Histamine H2 receptor): 6.23
